Usually IC50 stands for the concentration needed to halve the response being measured. A higher IC50 goes with lower potency.

Structures are written as SMILES.

Series [1] has as its target cannabinoid CB1 receptors. Briefly: in vitro affinity for cannabinoid CB1 receptors (Rinaldi-Carmona et al., FEBS Letters 1994). The conditions noted are these: conditions of Rinaldi-Carmona et al., FEBS Letters, 1994, 350, 240-244. The series is classed as binding.
Series [2] is described as follows: toxicity.

cannabinoid CB1 receptors, sequence (P21554 whole entry): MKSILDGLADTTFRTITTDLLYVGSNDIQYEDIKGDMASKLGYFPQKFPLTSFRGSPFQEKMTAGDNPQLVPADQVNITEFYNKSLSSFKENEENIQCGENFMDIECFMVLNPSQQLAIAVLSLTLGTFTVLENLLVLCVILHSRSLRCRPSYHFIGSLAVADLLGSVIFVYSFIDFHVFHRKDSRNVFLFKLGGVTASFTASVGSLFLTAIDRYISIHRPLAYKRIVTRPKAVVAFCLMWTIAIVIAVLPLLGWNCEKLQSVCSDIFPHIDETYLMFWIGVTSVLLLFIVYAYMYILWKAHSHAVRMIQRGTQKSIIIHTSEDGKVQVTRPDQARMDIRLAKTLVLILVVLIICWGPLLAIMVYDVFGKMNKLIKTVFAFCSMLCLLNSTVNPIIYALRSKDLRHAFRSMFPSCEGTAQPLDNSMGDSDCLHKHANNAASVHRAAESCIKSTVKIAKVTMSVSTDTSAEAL

The compound `CCc1c(C(=O)NN2CCC(O)CC2)nn(-c2ccc(Cl)cc2Cl)c1-c1ccc(Br)cc1` [compound of formula (I), 5-(4-Bromophenyl)-1-(2,4-dichlorophenyl)-4-ethyl-N-(hydroxypiperidin-1-yl)-1H-pyrazole-3-carboxamide] had a 50% inhibitory concentration (IC50) in series [1] of 0.032 µM. Besides, the toxicity result in series [2] is “compatible with its use as a medicinal product”.

The values above are taken from patent US20060004055A1, “Derivative of 5-(4-bromophenyl)-1-(2,4-dichlorophenyl)-4-ethyl-N-(piperidine-1-yl)-1H-pyrazole-3-carboxamide, the preparation and therapeutic use thereof” (Sanofi-Aventis, priority 2002, published 2006).
